This passage reports GI50 and TGI results from PubChem BioAssay (NCI).

Each structure is given as a SMILES string.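 Method: 48-hour compound exposure of cells in 96-well plates, five concentrations, linear interpolation of endpoints. Here, GI50 denotes the concentration required for 50% inhibition of growth. Definition used: TGI = concentration required for complete inhibition of growth.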

Test systems include OVCAR-3 ovarian; KM12 colon; SW-620 colon; ACHN renal; MCF7 breast; HOP-62 NSCLC; U251 CNS; DU-145 prostate; SR leukemia.
Holding throughout (experiment): growth of human tumour cells (NCI), 48 h

With `CCCCCCCCCC[C@@H](O)[C@H]1CC[C@@H]([C@H]2CC[C@H]([C@H](O)CCCCCCCCCC[C@@H]3CC(CC(C)=O)C(=O)O3)O2)O1` (some centres undefined), the GI50 with OVCAR-3 ovarian was 18.1 µM; with KM12 colon, 24.2 µM; with SW-620 colon, 37.2 µM; with ACHN renal it was 14.6 µM; in the experiment on MCF7 breast, 19.8 µM; in the experiment with HOP-62 NSCLC it was 19.1 µM. Further, the TGI with OVCAR-3 ovarian is 39.4 µM; in the experiment with KM12 colon it was over 100 µM; in the experiment on SW-620 colon it was over 100 µM; in the experiment on MCF7 breast, over 100 µM; in the experiment on HOP-62 NSCLC, 72.2 µM.

For the molecule `NC(=O)CN1CCN(c2nc(N3CCCC3)c3nc(Cl)c(NCc4ccccc4)nc3n2)CC1`, the TGI in the experiment with OVCAR-3 ovarian is 16.3 µM; with KM12 colon, 22 µM; with U251 CNS, 15.5 µM; with SW-620 colon, 31.4 µM; in the experiment on ACHN renal, 32.2 µM; in the experiment with MCF7 breast, 16.6 µM. For the same molecule, the TGI with DU-145 prostate was 28.8 µM; in the experiment on HOP-62 NSCLC, 4.89 µM.

In the case of `C[C@@H](CC(O)C(O)C(C)(C)O)C1CCC23CC12CCC1[C@@]2(C)CCC(=O)C(C)(C)C2CC(OC2OC(CO)C(O)C(O)C2O)[C@]13C` (some centres undefined), the TGI in the experiment with OVCAR-3 ovarian, in the experiment on KM12 colon, in the experiment with U251 CNS, in the experiment on SW-620 colon, in the experiment on ACHN renal and with MCF7 breast was over 10 µM each time. In addition, the TGI in the experiment on DU-145 prostate and with HOP-62 NSCLC was over 10 µM throughout.

In the case of `NC(=S)NS(=O)(=O)c1ccc(Cl)cc1Cl`, the TGI in the experiment on OVCAR-3 ovarian, in the experiment on KM12 colon, in the experiment on U251 CNS, in the experiment with SW-620 colon, in the experiment with ACHN renal and in the experiment with DU-145 prostate was over 100 µM each time. In the experiment on HOP-62 NSCLC, this molecule displayed a TGI of over 100 µM.

With `O.O=[Se](=O)(O)O.[NH-]C1CCCCC1[NH-].[Pt+2]` (centres undefined), the GI50 in the experiment with OVCAR-3 ovarian was 21.2 µM; with KM12 colon it was 47.2 µM; in the experiment with U251 CNS, 37 µM; in the experiment with SW-620 colon it was 2.11 µM; in the experiment on MCF7 breast it was 3.49 µM; in the experiment with HOP-62 NSCLC, 37.5 µM. Further, the TGI in the experiment on OVCAR-3 ovarian is over 81.9 µM; in the experiment on KM12 colon, over 100 µM; with U251 CNS it was over 100 µM; with SW-620 colon it was over 100 µM; in the experiment on MCF7 breast, over 47.1 µM; in the experiment on HOP-62 NSCLC it was over 100 µM.

Take `Cn1cnc([N+](=O)[O-])c1Sc1nncc2[nH]cnc12`: the TGI in the experiment with SR leukemia, with OVCAR-3 ovarian, in the experiment with KM12 colon, with U251 CNS, with SW-620 colon and with ACHN renal was over 100 µM in each case. For the same molecule, the TGI in the experiment on MCF7 breast and with HOP-62 NSCLC was over 100 µM in each case.

For the molecule `Cc1cc(=O)[nH]c(S(=O)(=O)NC(=S)Nc2ccc(Br)cc2)n1`, the TGI in the experiment with OVCAR-3 ovarian, in the experiment on U251 CNS, in the experiment on SW-620 colon, in the experiment on ACHN renal, in the experiment on DU-145 prostate and in the experiment on HOP-62 NSCLC was over 100 µM throughout.

Consider `CC(C)(C)OC(=O)N[C@@H](Cc1ccccc1)C(=O)N1CC[C@@H](C(=O)N2[C@H]3CC4CC[C@@]3(CS2(=O)=O)C4(C)C)N1`, for which the TGI in the experiment on SR leukemia, in the experiment on OVCAR-3 ovarian, with KM12 colon, with U251 CNS, in the experiment with SW-620 colon and with ACHN renal was over 100 µM in each case. Moreover, the TGI in the experiment on DU-145 prostate and in the experiment on HOP-62 NSCLC was over 100 µM each time.

Take `Cc1ccc(Oc2cc(C)ccc2P(=O)(O)O)cc1`: the TGI in the experiment on OVCAR-3 ovarian, in the experiment on KM12 colon, with SW-620 colon, with MCF7 breast, in the experiment with DU-145 prostate and with HOP-62 NSCLC was over 100 µM throughout.

Regarding `Cn1c(=O)n2n(c1=O)C1C(=CC2)C2C=CC1n1c(=O)n(C)c(=O)n12` (centres undefined), the TGI with OVCAR-3 ovarian, with KM12 colon, in the experiment with U251 CNS, in the experiment on SW-620 colon, with ACHN renal and in the experiment with DU-145 prostate was over 100 µM each time. The molecule also came in with a TGI in the experiment with HOP-62 NSCLC of over 100 µM.

Turning to `Brc1ccc2[nH]cc(-c3nc(-c4c[nH]c5ccncc45)cs3)c2c1`, in the experiment with ACHN renal, the GI50 was 1.77 µM and the TGI was 3.16 µM. For the same molecule, in the experiment with DU-145 prostate, the GI50 is 1.68 µM and the TGI is 3.07 µM.

As to `CCC[CH2][Ge]([CH2]CCC)([CH2]CCC)[O]C(=O)CCl`, the GI50 is 0.836 µM in the experiment on SR leukemia; 2.33 µM with OVCAR-3 ovarian; 1.4 µM with KM12 colon; 0.889 µM in the experiment on U251 CNS; 4.19 µM in the experiment with SW-620 colon; 2.71 µM in the experiment with ACHN renal. For the same molecule, the GI50 in the experiment with HOP-62 NSCLC is 1.89 µM. For the same molecule, the TGI in the experiment with SR leukemia amounted to 68.5 µM; in the experiment with OVCAR-3 ovarian, 16.3 µM; with KM12 colon, 15.9 µM; in the experiment on U251 CNS it was 16.6 µM; with SW-620 colon it was 17.4 µM; in the experiment on ACHN renal it was 18.4 µM. In the experiment on HOP-62 NSCLC, this molecule came in with a TGI of 9.23 µM.
